How the values were obtained:
[1] = system: genetically defined cancer cells; assay: Target methyl mark inhibition and killing of cancer cells in vitro; format: cell-based
soft tissue sarcoma = assay: Post-treatment biopsy of patients with soft tissue sarcoma (Example 2)
Oral bioavailability = conditions: in vivo
epithelioid sarcoma = assay: PD-L1, CD4 and CD8 staining of pre- and post-dose tissue biopsies of a subject with epithelioid sarcoma
[2] = In vivo efficacy in animal models
[3] = system: refractory B-cell non-Hodgkin lymphoma and advanced solid tumors, including epithelioid sarcoma; conditions: cited from earlier work

CCN(c1cc(-c2ccc(CN3CCOCC3)cc2)cc(C(=O)NCc2c(C)cc(C)[nH]c2=O)c1C)C1CCOCC1 [Compound 44, tazemetostat]
effect of target methyl mark inhibition on cancer cells [1]: killing of genetically defined cancer cells in vitro
cells present in the tumor showing expression of PD-L1 (soft tissue sarcoma; biopsy after 20 weeks of treatment): more than 50%
cells present in the tumor showing expression of PD-L1 (soft tissue sarcoma; second patient, biopsy after 25 weeks of treatment): more than 80%
oral bioavailability (Oral bioavailability): orally bioavailable
PD-L1 expression in tumor after treatment (epithelioid sarcoma; 800 mg twice daily orally, 25 weeks, post-dose vs pre-dose biopsy): upregulated PD-L1
T-cell markers CD4 and CD8 in tumors with upregulated PD-L1 (epithelioid sarcoma; after treatment): positive for T-cell markers CD4 and CD8
CD8+ immune cells, share of overall cellularity (epithelioid sarcoma; post-dose sample, 800 mg twice daily orally, 25 weeks (pre-dose about 5%)): about 30%
CD4+ histiocytoid cells, cellularity (epithelioid sarcoma; post-dose sample, 800 mg twice daily orally, 25 weeks (pre-dose about 20%)): about 5%
CD4+ cells, share of overall cellularity (epithelioid sarcoma; post-dose sample, 800 mg twice daily orally, 25 weeks (pre-dose also about 2%)): about 2%
in vivo efficacy following inhibition of target methyl mark [2]: sustained in vivo efficacy
PD-L1 expression in tumor sample ([3]; after 4 weeks of treatment): modest expression of PD-L1 on immune cells
histological assessment of on-treatment tumor specimen ([3]; not present at baseline nor at disease progression): strong immune infiltrate
clinical activity in patients ([3]; phase I clinical study): antitumor activity

From US11602529B2, “Use of EZH2 inhibitors for treating cancer” (Epizyme, Inc., priority 2017, dated 2023)
